Test results reported in ChEMBL document CHEMBL4825728, “Development of succinimide-based inhibitors for the mitochondrial rhomboid protease PARL” (Bioorg Med Chem Lett, 2021).
Active and inactive are the calls of the source. The calls are words filed in the database; no cut-off is given here.

How the values were obtained:
[1] = Solubility of the compound in HEK-293T cell membrane transfected with FLAG-tagged human PARL; assay type: ADME, cell membranes
Rhomboid protease GlpG = biological target: T1, Rhomboid protease GlpG (Escherichia coli (strain K12), UniProt P09391); test: Inhibition of GlpG in Escherichia coli BL21 assessed as inhibition of FP-Rh labeling treated with compound for 30 mins prior to FP-Rh addition by competitive ABPP based analysis
T1 sequence (P09391 whole entry): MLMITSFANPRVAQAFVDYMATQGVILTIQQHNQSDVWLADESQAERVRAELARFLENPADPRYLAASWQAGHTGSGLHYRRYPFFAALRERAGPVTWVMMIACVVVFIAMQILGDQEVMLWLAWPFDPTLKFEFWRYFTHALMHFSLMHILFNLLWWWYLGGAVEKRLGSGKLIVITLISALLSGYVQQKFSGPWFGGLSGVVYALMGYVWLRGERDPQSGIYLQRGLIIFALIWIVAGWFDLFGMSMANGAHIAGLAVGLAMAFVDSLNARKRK

[2] = biological target: T2, Presenilin-associated rhomboid-like protein, mitochondrial (Homo sapiens, UniProt Q9H300); test: Inhibition of human PARL transfected in HEK293T cell membrane assessed as inhibition of FP-Rh labeling treated with compound for 30 mins prior to FP-Rh addition by competitive ABPP based analysis; assay type: cell membranes
T2 sequence (Q9H300 whole entry): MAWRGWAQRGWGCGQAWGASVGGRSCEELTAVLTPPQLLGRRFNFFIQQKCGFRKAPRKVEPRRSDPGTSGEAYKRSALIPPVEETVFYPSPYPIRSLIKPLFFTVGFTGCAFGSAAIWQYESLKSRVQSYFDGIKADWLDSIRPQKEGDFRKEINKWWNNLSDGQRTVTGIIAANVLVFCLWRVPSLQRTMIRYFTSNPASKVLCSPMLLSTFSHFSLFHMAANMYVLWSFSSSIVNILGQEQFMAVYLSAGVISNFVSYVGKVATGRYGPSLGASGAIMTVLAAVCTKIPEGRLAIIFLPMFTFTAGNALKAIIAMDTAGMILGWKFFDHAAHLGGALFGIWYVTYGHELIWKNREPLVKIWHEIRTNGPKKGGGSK

[3] = biological target: T3, Presenilin-associated rhomboid-like protein, mitochondrial (Homo sapiens) (UniProt Q9H300); test: Reversible inhibition of FLAG-tagged human PARL transfected in HEK293T cell membrane assessed as FP-Rh labeling at 200 uM treated with compound followed by gel filtration and later incubated for 4 hrs prior to FP-Rh labeling by competitive ABPP based analysis; assay type: cell membranes; set-up: Activity: scale not given: the % may be the effect or the level left
T3 sequence (whole entry): T2 sequence (Q9H300 whole entry)

[4] = biological target: T3, Presenilin-associated rhomboid-like protein, mitochondrial (Homo sapiens); test: Reversible inhibition of FLAG-tagged human PARL transfected in HEK293T cell membrane assessed as FP-Rh labeling at 200 uM treated with compound followed by gel filtration and later incubated for 4 hrs prior to FP-Rh labeling by western blot analysis; assay type: cell membranes
[5] = biological target: T3, Presenilin-associated rhomboid-like protein, mitochondrial (Homo sapiens); test: Inhibition of FLAG-tagged human PARL transfected in HEK293T cell membrane assessed as inhibition of FP-Rh labeling at 100 uM incubated for 8 hrs followed by cells washing and lysis prior to FP-Rh labeling by In situ based analysis; assay type: cell membranes
[6] = biological target: T3, Presenilin-associated rhomboid-like protein, mitochondrial (Homo sapiens); test: Inhibition of FLAG-tagged human PARL transfected in HEK293T cell membrane assessed as inhibition of FP-Rh labeling at 100 uM incubated for 24 hrs followed by cells washing and lysis prior to FP-Rh labeling by In situ based analysis; assay type: cell membranes
[7] = biological target: T3, Presenilin-associated rhomboid-like protein, mitochondrial (Homo sapiens); test: Inhibition of FLAG-tagged human PARL transfected in HEK293T cell membrane assessed as inhibition of FP-Rh labeling at 200 uM treated with compound prior to FP-Rh addition by competitive ABPP based analysis; assay type: cell membranes
[8] = biological target: T4, Rhomboid protease GlpG (Escherichia coli (strain K12)) (UniProt P09391); test: Inhibition of GlpG in Escherichia coli BL21 assessed as inhibition of FP-Rh labeling at 200 uM treated with compound prior to FP-Rh addition by competitive ABPP based analysis
T4 sequence (whole entry): T1 sequence (P09391 whole entry)

With CS(=O)(=O)ON1C(=O)c2ccccc2C1=O the solubility [1] was “Soluble”.

With COc1ccc(S(=O)(=O)N2C(=O)CCC2=O)cc1 the solubility [1] was “Soluble”.

For O=C1CCC(=O)N1OS(=O)(=O)c1ccccc1, the solubility [1] was “Soluble”, the IC50 (Rhomboid protease GlpG) was 120 µM and the IC50 [2] was 20 µM. For the same molecule, the inhibition [3] was “Active”, the inhibition [4] was “Active” and the inhibition [5] was > 50%. The inhibition [6] was “inactive”.

For O=c1oc(Cl)c(Cl)c2ccccc12, the inhibition [7] was “Active” and the inhibition [8] was “Active”.

For O=C1c2ccccc2C(=O)N1S(=O)(=O)c1ccc(-c2ccccc2)cc1, the solubility [1] was “Soluble”.

In the case of O=C1CCC(=O)N1S(=O)(=O)c1ccc(-c2ccccc2)cc1, the solubility [1] is reported as “Soluble”, the IC50 (Rhomboid protease GlpG) is reported as 68 µM and the IC50 [2] is reported as 0.7 µM.

In the case of O=S(=O)(F)Cc1ccccc1, the inhibition [7] is reported as “inactive” and the inhibition [8] is reported as “inactive”.

With O=C1c2ccccc2C(=O)N1S(=O)(=O)c1ccc2ccccc2c1 the solubility [1] was “Soluble”.

With CS(=O)(=O)N1C(=O)c2ccccc2C1=O the solubility [1] was “Soluble”.

In the case of O=C1c2ccccc2C(=O)N1S(=O)(=O)c1ccc([N+](=O)[O-])cc1, the solubility [1] is reported as “Soluble”.

For CC(C)S(=O)(=O)ON1C(=O)c2ccccc2C1=O, the solubility [1] was “Soluble”.

For CC(C)S(=O)(=O)ON1C(=O)CCC1=O, the solubility [1] was “Soluble”.

For CS(=O)(=O)N1C(=O)CCC1=O, the solubility [1] was “Soluble”.

With O=C1c2ccccc2C(=O)N1OS(=O)(=O)c1ccc2ccccc2c1 the solubility [1] was “Soluble”.

In the case of O=C1CCC(=O)N1OS(=O)(=O)c1ccc([N+](=O)[O-])cc1, the solubility [1] is reported as “Soluble”.

For CC(C)S(=O)(=O)N1C(=O)c2ccccc2C1=O, the solubility [1] was “Soluble”.

With Cc1ccc(S(=O)(=O)N[C@@H](Cc2ccccc2)C(=O)CCl)cc1 the inhibition [7] was “inactive” and the inhibition [8] was “inactive”.

In the case of NCCc1ccc(S(=O)(=O)F)cc1, the inhibition [7] is reported as “inactive” and the inhibition [8] is reported as “inactive”.

In the case of CC(C)S(=O)(=O)N1C(=O)CCC1=O, the solubility [1] is reported as “Soluble”.

In the case of O=C1CCC(=O)N1OS(=O)(=O)c1ccc2ccccc2c1, the solubility [1] is reported as “Soluble”.

For COc1ccc(S(=O)(=O)N2C(=O)c3ccccc3C2=O)cc1, the solubility [1] was “Soluble”.

With O=C1c2ccccc2C(=O)N1OS(=O)(=O)c1ccc([N+](=O)[O-])cc1 the solubility [1] was “Soluble”.

With O=C(OCN1C(=O)c2ccccc2S1(=O)=O)c1ccccc1Cl the IC50 (Rhomboid protease GlpG) was 2.8 µM, the IC50 [2] was 8.8 µM and the inhibition [7] was 100%. For the same molecule, the inhibition [8] was 100%, the Activity [3] was 20% and the inhibition [5] was > 50%. For the same molecule, the inhibition [6] was “inactive”.

With O=C1CCC(=O)N1S(=O)(=O)c1ccccc1 the solubility [1] was “Soluble”, the IC50 (Rhomboid protease GlpG) was > 1000 µM and the IC50 [2] was 4.3 µM. For the same molecule, the inhibition [3] was “Active” and the inhibition [6] was “inactive”.

In the case of O=C1CCC(=O)N1S(=O)(=O)c1ccc([N+](=O)[O-])cc1, the solubility [1] is reported as “Soluble”, the IC50 (Rhomboid protease GlpG) is reported as 310 µM and the IC50 [2] is reported as 0.9 µM. The inhibition [5] was “Active” and the inhibition [6] was “inactive”.

For COc1ccc(S(=O)(=O)ON2C(=O)c3ccccc3C2=O)cc1, the solubility [1] was “Soluble”.

With COc1ccc(S(=O)(=O)ON2C(=O)CCC2=O)cc1 the solubility [1] was “Soluble”.

With CS(=O)(=O)ON1C(=O)CCC1=O the solubility [1] was “Soluble”.

For O=C1CCC(=O)N1OS(=O)(=O)c1ccc(-c2ccccc2)cc1, the solubility [1] was “Soluble”, the IC50 (Rhomboid protease GlpG) was 26 µM and the IC50 [2] was 1.9 µM.

In the case of O=C1c2ccccc2C(=O)N1OS(=O)(=O)c1ccccc1, the solubility [1] is reported as “Soluble”.

In the case of O=C1c2ccccc2C(=O)N1OS(=O)(=O)c1ccc(-c2ccccc2)cc1, the solubility [1] is reported as “Soluble”.

With O=C1CCC(=O)N1S(=O)(=O)c1ccc2ccccc2c1 the solubility [1] was “Soluble”.

In the case of O=C1c2ccccc2C(=O)N1S(=O)(=O)c1ccccc1, the solubility [1] is reported as “Soluble”.
